The values that follow come from article PMC10533401, “Development of two mouse strains conditionally expressing bright luciferases with distinct emission spectra as new tools for in vivo imaging” (Lab Animal, 2023).

Structures are written as SMILES.

This test concerns T1, oFluc.
T1 construct: gene firefly luciferase; not fused to Venus
Kind of test: luminescence intensity, luminometer, Michaelis-Menten fit. In kind it is biochemical, Pyrocoelia matsumurai. Conditions: 0.1 M citric acid/0.1 M Na2HPO4 pH 7.0, 1 mM ATP, 2 mM MgSO4, D-luciferin 0-990 µM; partially purified enzyme. The method, then:
luminescence intensity, luminometer, Michaelis-Menten fit on oFluc | Km for oFluc or Venus/Akaluc for D-luciferin or AkaLumine were determined

As to `O=C(O)[C@H]1CSC(c2nc3ccc(O)cc3s2)=N1` [D-luciferin], the Km is 31.9 µM.
